This passage reports IC50 results from US11739098B2 (BRISTOL-MYERS SQUIBB COMPANY, priority 2017, dated 2023).

Structures are written as SMILES. Bounds are passed on as bounds.

What all share (assay type): cell-based
One assay has as its target T1, human TLR9 (Homo sapiens, UniProt Q9NR96).
T1 construct: host or cells: HEK-Blue cells (HEK293-derived reporter line)
T1 sequence (Q9NR96 26-1032): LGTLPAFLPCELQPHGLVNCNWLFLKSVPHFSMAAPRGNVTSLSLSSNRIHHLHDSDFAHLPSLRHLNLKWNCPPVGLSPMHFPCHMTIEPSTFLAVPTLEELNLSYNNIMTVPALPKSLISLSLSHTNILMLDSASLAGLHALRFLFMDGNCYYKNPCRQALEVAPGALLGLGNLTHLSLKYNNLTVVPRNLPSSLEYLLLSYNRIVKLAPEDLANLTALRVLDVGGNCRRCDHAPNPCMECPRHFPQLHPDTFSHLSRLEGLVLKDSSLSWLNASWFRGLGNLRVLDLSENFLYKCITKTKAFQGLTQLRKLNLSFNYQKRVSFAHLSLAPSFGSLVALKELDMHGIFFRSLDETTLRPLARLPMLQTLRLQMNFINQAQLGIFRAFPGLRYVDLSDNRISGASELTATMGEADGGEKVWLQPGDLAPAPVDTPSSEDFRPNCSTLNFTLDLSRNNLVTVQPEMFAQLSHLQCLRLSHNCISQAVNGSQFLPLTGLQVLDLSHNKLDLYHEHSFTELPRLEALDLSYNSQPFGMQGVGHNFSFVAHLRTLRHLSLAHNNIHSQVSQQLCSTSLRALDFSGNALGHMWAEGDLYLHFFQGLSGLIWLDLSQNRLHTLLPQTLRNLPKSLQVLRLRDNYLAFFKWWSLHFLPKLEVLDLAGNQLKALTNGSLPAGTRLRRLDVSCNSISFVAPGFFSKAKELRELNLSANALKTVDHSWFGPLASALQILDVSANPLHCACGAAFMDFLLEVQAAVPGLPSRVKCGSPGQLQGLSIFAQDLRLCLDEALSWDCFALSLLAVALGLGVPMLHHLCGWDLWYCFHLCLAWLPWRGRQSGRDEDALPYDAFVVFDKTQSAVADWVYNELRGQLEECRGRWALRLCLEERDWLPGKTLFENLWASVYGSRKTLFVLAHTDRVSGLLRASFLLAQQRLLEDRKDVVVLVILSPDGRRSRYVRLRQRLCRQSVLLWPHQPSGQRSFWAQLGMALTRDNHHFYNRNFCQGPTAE
In words: TLR9 inhibition reporter assay (HEK-Blue cells, SEAP reporter, ODN2006 stimulation). The conditions noted are these: HEK-Blue cells overexpressing human TLR9, SEAP reporter, ODN2006 5 nM. In outline:
(§1)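 Read-out is SEAP activity in HEK-Blue detection medium after 22 h at 37 °C, converted to percent inhibition against agonist-plus-DMSO and reference-inhibitor controls. Cells saw compound (0.05 nM–50 μM, 30 min, room temperature) before gardiquimod 7.5 μM, R848 15.9 μM or ODN2006 5 nM for TLR7, TLR8 and TLR9, respectively.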

Another assay has as its target T2, human TLR7 (Homo sapiens, UniProt Q9NYK1).
T2 construct: host or cells: HEK-Blue cells (HEK293-derived reporter line)
T2 sequence (Q9NYK1 27-1049): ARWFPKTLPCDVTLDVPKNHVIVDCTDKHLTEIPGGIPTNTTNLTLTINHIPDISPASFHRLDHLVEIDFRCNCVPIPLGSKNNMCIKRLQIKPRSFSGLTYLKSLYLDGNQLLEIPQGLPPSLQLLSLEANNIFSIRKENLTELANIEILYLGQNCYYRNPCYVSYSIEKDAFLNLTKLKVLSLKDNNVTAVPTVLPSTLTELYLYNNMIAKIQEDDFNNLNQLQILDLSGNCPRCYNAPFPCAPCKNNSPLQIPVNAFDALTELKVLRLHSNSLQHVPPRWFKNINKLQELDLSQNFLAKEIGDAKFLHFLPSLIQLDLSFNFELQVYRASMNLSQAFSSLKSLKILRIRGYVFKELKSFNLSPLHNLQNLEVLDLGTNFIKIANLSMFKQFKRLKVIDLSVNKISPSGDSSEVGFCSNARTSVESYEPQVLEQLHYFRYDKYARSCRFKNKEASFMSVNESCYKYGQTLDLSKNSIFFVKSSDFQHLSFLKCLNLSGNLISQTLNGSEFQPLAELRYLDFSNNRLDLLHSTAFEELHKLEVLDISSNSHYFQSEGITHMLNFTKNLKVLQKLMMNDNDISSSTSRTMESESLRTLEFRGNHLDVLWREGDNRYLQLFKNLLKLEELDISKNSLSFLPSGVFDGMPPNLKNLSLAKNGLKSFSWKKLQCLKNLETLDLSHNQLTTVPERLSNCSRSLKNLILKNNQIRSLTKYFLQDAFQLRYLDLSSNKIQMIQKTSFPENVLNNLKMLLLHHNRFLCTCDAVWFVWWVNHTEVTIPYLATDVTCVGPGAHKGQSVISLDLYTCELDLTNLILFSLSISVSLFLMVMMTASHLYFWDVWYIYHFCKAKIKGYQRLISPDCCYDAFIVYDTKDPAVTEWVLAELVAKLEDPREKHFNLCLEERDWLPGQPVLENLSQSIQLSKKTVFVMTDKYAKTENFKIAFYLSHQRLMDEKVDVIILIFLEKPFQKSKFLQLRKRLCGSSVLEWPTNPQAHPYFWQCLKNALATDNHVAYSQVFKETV
In words: TLR7 inhibition reporter assay (HEK-Blue cells, SEAP reporter, gardiquimod stimulation). The conditions noted are these: HEK-Blue cells overexpressing human TLR7, SEAP reporter, gardiquimod 7.5 μM. In outline: as §1
A general note: Reporter assays use an easily measured gene product as a stand-in for the process of interest.

For another assay, the target named is T3, human TLR8 (Homo sapiens, UniProt Q9NR97).
T3 construct: host or cells: HEK-Blue cells (HEK293-derived reporter line)
T3 sequence (Q9NR97 27-1041): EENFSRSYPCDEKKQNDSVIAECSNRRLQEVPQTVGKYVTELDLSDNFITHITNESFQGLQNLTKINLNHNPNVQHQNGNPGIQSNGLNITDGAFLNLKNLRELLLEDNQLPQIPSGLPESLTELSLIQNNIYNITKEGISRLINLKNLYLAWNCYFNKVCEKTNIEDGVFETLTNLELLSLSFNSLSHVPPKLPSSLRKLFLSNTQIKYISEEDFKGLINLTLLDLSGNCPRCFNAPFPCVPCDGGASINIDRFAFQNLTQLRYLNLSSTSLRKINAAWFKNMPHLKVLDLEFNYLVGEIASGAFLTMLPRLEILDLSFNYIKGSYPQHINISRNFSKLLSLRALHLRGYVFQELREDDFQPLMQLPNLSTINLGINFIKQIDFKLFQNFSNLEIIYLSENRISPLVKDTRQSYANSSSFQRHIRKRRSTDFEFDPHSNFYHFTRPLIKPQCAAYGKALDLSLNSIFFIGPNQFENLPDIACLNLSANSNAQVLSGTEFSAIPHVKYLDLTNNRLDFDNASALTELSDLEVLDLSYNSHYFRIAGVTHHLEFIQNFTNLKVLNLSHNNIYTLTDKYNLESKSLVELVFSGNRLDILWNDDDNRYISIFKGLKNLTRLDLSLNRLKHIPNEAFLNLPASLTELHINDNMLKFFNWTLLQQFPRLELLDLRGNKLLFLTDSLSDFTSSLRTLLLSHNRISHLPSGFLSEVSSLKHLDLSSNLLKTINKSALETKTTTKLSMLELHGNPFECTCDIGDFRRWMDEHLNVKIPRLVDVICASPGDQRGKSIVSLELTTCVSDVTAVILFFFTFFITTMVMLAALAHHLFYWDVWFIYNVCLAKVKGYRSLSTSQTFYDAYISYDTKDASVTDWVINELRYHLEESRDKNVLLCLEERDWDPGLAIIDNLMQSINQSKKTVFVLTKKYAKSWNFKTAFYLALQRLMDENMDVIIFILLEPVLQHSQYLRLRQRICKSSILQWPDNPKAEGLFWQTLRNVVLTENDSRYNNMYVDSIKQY
In words: TLR8 inhibition reporter assay (HEK-Blue cells, SEAP reporter, R848 stimulation). The conditions noted are these: HEK-Blue cells overexpressing human TLR8, SEAP reporter, R848 15.9 μM. In outline:
as §1

A word on the IC50: it is the concentration that gives 50% inhibition. Low values mean higher potency, high ones lower potency. Consider `CC(C)c1c(-c2ccnc3[nH]ncc23)[nH]c2ccc(C3CCN(C(=O)CN4CC[C@H](N(C)C)C4)CC3)cc12` [Example 590, (S)-2-(3-(dimethylamino)pyrrolidin-1-yl)-1-(4-(3-isopropyl-2-(1H-pyrazolo [3,4-b]pyridin-4-yl)-1H-indol-5-yl)piperidin-1-yl)ethan-1-one], for which the figures for the IC50 against human TLR9, against human TLR7 and on human TLR8 were 0.1 to 1 µM, under 0.1 µM and under 0.1 µM, respectively.

Consider `CC(C)c1c(-c2ccnc3[nH]ncc23)[nH]c2ccc(C3CCN(C(=O)CNCC(C)(C)C)CC3)cc12` [Example 589, 1-(4-(3-isopropyl-2-(1H-pyrazolo[3,4-b]pyridin-4-yl)-1H-indol-5-yl)piperidin-1-yl)-2-(neopentylamino)ethan-1-one], for which the half-inhibitory concentration (IC50) is 1 to 50 µM at human TLR9, under 0.1 µM at human TLR7 and under 0.1 µM against human TLR8.

As to `Cc1cc(-c2[nH]c3ccc(C4CCN(C(=O)[C@@H]5C[C@@H](O)CN5)CC4)cc3c2C(C)C)cc2ncnn12` [Example 537, ((2S,4R)-4-hydroxypyrrolidin-2-yl)(4-(3-isopropyl-2-(5-methyl-[1,2,4]triazolo[1,5-a]pyridin-7-yl)-1H-indol-5-yl)piperidin-1-yl)methanone], the half-maximal inhibitory concentration (IC50) is 1 to 50 µM against human TLR9, under 0.1 µM against human TLR7 and under 0.1 µM against human TLR8.

`COc1cc(-c2[nH]c3ccc(C4CCN(CC#N)CC4)cc3c2C(C)C)cn2ccnc12` [Example 950, 2-(4-(3-isopropyl-2-(8-methoxyimidazo[1,2-a]pyridin-6-yl)-1H-indol-5-yl)piperidin-1-yl)acetonitrile]: the 50% inhibitory concentration (IC50) is 0.1 to 1 µM against human TLR9, under 0.1 µM against human TLR7 and under 0.1 µM against human TLR8.

As for `Cc1cc(-c2[nH]c3ccc(C4CCN(Cc5ccn(C)n5)CC4)cc3c2C(C)C)cn2nncc12` [Example 882, 6-(3-isopropyl-5-(1-((1-methyl-1H-pyrazol-3-yl)methyl)piperidin-4-yl)-1H-indol-2-yl)-4-methyl-[1,2,3]triazolo[1,5-a]pyridine], the IC50 was 1 to 50 µM on human TLR9, 1 to 50 µM against human TLR7 and 0.1 to 1 µM on human TLR8.

As for `CC(C)c1c(-c2cc(F)c3nccn3c2)[nH]c2ccc(C3CCN(C(=O)C[C@@H](C)O)CC3)cc12` [Example 605, (R)-1-(4-(2-(8-fluoroimidazo[1,2-a]pyridin-6-yl)-3-isopropyl-1H-indol-5-yl)piperidin-1-yl)-3-hydroxybutan-1-one], the values for the IC50 on human TLR9, on human TLR7 and at human TLR8 were over 50 µM, under 0.1 µM and 1 to 50 µM, respectively.

With `CCc1c(-c2ccnc3[nH]ncc23)[nH]c2ccc(C3CCN(Cc4cc(C)n[nH]4)CC3)cc12` [Example 900, 4-(3-ethyl-5-(1-((3-methyl-1H-pyrazol-5-yl)methyl)piperidin-4-yl)-1H-indol-2-yl)-1H-pyrazolo[3,4-b]pyridine], the half-maximal inhibitory concentration (IC50) is 1 to 50 µM against human TLR9, 0.1 to 1 µM at human TLR7 and under 0.1 µM against human TLR8.

For `COc1c(C)c(-c2[nH]c3ccc(C4CCN(CC(=O)N(C)C)CC4)cc3c2C(C)C)nn2ncnc12` [Example 282, 2-(4-(3-isopropyl-2-(8-methoxy-7-methyl-[1,2,4]triazolo[1,5-b]pyridazin-6-yl)-1H-indol-5-yl)piperidin-1-yl)-N,N-dimethylacetamide], the half-maximal inhibitory concentration (IC50) was 1 to 50 µM against human TLR9, under 0.1 µM against human TLR7 and under 0.1 µM on human TLR8.

As to `CC(C)c1c(-c2cc(F)c3nccn3c2)[nH]c2ccc(C3CCN(C(=O)C[C@H](C)O)CC3)cc12` [Example 604, (S)-1-(4-(2-(8-fluoroimidazo[1,2-a]pyridin-6-yl)-3-isopropyl-1H-indol-5-yl)piperidin-1-yl)-3-hydroxybutan-1-one], the IC50 against human TLR9 is over 50 µM; on human TLR7 it was under 0.1 µM; against human TLR8, 1 to 50 µM.

Take `Cc1cc(-c2[nH]c3ccc(C4CCN(CC(N)=O)CC4)cc3c2C(C)C)cc2cccnc12` [Example 436, 2-(4-(3-isopropyl-2-(8-methylquinolin-6-yl)-1H-indol-5-yl)piperidin-1-yl)acetamide]: the results for the IC50 against human TLR9, against human TLR7 and against human TLR8 were 1 to 50 µM, under 0.1 µM and under 0.1 µM, respectively.

Consider `COc1cc(-c2[nH]c3ccc(C4CCN(CCNS(C)(=O)=O)CC4)cc3c2C(C)C)nn2ncnc12` [Example 652, N-(2-(4-(3-isopropyl-2-(8-methoxy-[1,2,4]triazolo[1,5-b]pyridazin-6-yl)-1H-indol-5-yl)piperidin-1-yl)ethyl)methanesulfonamide], for which the IC50 on human TLR9 was 1 to 50 µM; at human TLR7, under 0.1 µM; against human TLR8 it was under 0.1 µM.

Take `CNCC(=O)N1CCC(c2ccc3[nH]c(-c4cnc5ncnn5c4)c(C(C)C)c3c2)CC1` [Example 555, 1-(4-(2-([1,2,4]triazolo [1,5-a]pyrimidin-6-yl)-3-isopropyl-1H-indol-5-yl)piperidin-1-yl)-2-(methylamino)ethan-1-one]: the half-maximal inhibitory concentration (IC50) is 1 to 50 µM against human TLR9, under 0.1 µM against human TLR7 and 0.1 to 1 µM against human TLR8.
